Results from PubChem BioAssay AID256 (DTP/NCI, 2004).
Values joined by “and” are separate entries in the source; they are usually repeats but may differ in a detail not shown here. Equal entries are not always repeated. Toxic doses and inconclusive results are not listed.

System: CD2F1 mice, L1210 leukemia ip, survival T/C
Experiment: NCI In Vivo Anticancer Drug Screen. Data for tumor model L1210 Leukemia (intraperitoneal) in CD2F1 (CDF1) mice
Conditions: higher = longer survival
In short: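 Antitumor effect is scored in animals hosting a serially transplanted tumor. Values compare compound-dosed animals against vehicle-only controls as a simple quotient.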

[1] = endpoint: mean survival time, dose: 100.0 mg/kg/injection, schedule: Q01DX001 (ip), vehicle: saline
[2] = endpoint: mean survival time, dose: 200.0 mg/kg/injection, schedule: Q01DX001 (ip), vehicle: saline
[3] = endpoint: mean survival time, dose: 400.0 mg/kg/injection, schedule: Q01DX001 (ip), vehicle: saline
[4] = endpoint: mean survival time, dose: 100.0 mg/kg/injection, schedule: Q01DX009 (ip), vehicle: saline with Tween-80
[5] = endpoint: mean survival time, dose: 200.0 mg/kg/injection, schedule: Q01DX009 (ip), vehicle: saline with Tween-80
[6] = endpoint: mean survival time, dose: 400.0 mg/kg/injection, schedule: Q01DX009 (ip), vehicle: saline with Tween-80
[7] = endpoint: mean survival time, dose: 50.0 mg/kg/injection, schedule: Q01DX009 (ip), vehicle: saline with Tween-80
[8] = endpoint: mean survival time, dose: 100.0 mg/kg/injection, schedule: Q04DX003 (ip), vehicle: saline with Tween-80
[9] = endpoint: mean survival time, dose: 200.0 mg/kg/injection, schedule: Q04DX003 (ip), vehicle: saline with Tween-80
[10] = endpoint: mean survival time, dose: 400.0 mg/kg/injection, schedule: Q04DX003 (ip), vehicle: saline with Tween-80

In the case of CCCCOP(=O)(OCCCC)[O][Pb]([CH2]C)([CH2]C)[CH2]C, the T/C (endpoint: mean survival time, dose: 6.25 mg/kg/injection, schedule: Q04DX003 (ip), vehicle: saline with Tween-80) is reported as 97 % of control and the T/C (endpoint: mean survival time, dose: 12.5 mg/kg/injection, schedule: Q04DX003 (ip), vehicle: saline with Tween-80) is reported as 92 % of control.

With CCC(=O)OCC[N+](C)(C)C the T/C [1] was 100 % of control, the T/C [2] was 96 % of control and the T/C [3] was 96 % of control.

For BrC1CCCCCCC1Br (stereo not drawn), the T/C (endpoint: mean survival time, dose: 25.0 mg/kg/injection, schedule: Q01DX009 (ip), vehicle: saline) was 96 % of control, the T/C (endpoint: mean survival time, dose: 50.0 mg/kg/injection, schedule: Q01DX009 (ip), vehicle: saline) was 94 % of control and the T/C (endpoint: mean survival time, dose: 100.0 mg/kg/injection, schedule: Q01DX009 (ip), vehicle: saline) was 93 % of control.

In the case of COS(=O)(=O)C=C(c1ccccc1)c1ccccc1, the T/C (endpoint: mean survival time, dose: 75.0 mg/kg/injection, schedule: Q01DX009 (ip), vehicle: saline) is reported as 103 % of control, the T/C (endpoint: mean survival time, dose: 75.0 mg/kg/injection, schedule: Q04DX003 (ip), vehicle: saline) is reported as 91 % of control and the T/C (endpoint: mean survival time, dose: 150.0 mg/kg/injection, schedule: Q01DX009 (ip), vehicle: saline) is reported as 100 % of control. The T/C (endpoint: mean survival time, dose: 150.0 mg/kg/injection, schedule: Q04DX003 (ip), vehicle: saline) was 94 % of control, the T/C (endpoint: mean survival time, dose: 300.0 mg/kg/injection, schedule: Q01DX009 (ip), vehicle: saline) was 100 % of control and the T/C (endpoint: mean survival time, dose: 300.0 mg/kg/injection, schedule: Q04DX003 (ip), vehicle: saline) was 91 % of control.

For CCCC[N+](CCCC)(CCCC)Cc1ccccc1, the T/C (endpoint: mean survival time, dose: 1.5 mg/kg/injection, schedule: Q04DX003 (ip), vehicle: saline) was 100 % of control, the T/C (endpoint: mean survival time, dose: 3.0 mg/kg/injection, schedule: Q04DX003 (ip), vehicle: saline) was 97 % of control and the T/C (endpoint: mean survival time, dose: 6.0 mg/kg/injection, schedule: Q04DX003 (ip), vehicle: saline) was 94 % of control.

In the case of O=C(O)C(Cc1ccc(O)cc1)c1ccccc1 (stereo not drawn), the T/C [4] is reported as 103 % of control, the T/C [5] is reported as 101 % of control and the T/C [6] is reported as 95 % of control.

In the case of NC(=O)C1C(c2ccccc2)=C(c2ccccc2)c2ccccc21 (stereo not drawn), the T/C (endpoint: mean survival time, dose: 100.0 mg/kg/injection, schedule: Q01DX001 (ip), vehicle: saline with Tween-80) is reported as 87 % of control, the T/C (endpoint: mean survival time, dose: 200.0 mg/kg/injection, schedule: Q01DX001 (ip), vehicle: saline with Tween-80) is reported as 87 % of control and the T/C (endpoint: mean survival time, dose: 400.0 mg/kg/injection, schedule: Q01DX001 (ip), vehicle: saline with Tween-80) is reported as 87 % of control.

In the case of O=S(=O)(O)SCc1ccccc1CSS(=O)(=O)O, the T/C (endpoint: mean survival time, dose: 100.0 mg/kg/injection, schedule: Q04DX003 (ip), vehicle: saline) is reported as 96 % of control, the T/C (endpoint: mean survival time, dose: 200.0 mg/kg/injection, schedule: Q04DX003 (ip), vehicle: saline) is reported as 101 % of control and the T/C (endpoint: mean survival time, dose: 400.0 mg/kg/injection, schedule: Q04DX003 (ip), vehicle: saline) is reported as 108 % of control.

c1ccc(CCc2ccnc3ccccc23)cc1 was tested, and the T/C [7] was 94 % of control, the T/C [4] was 98 % of control and the T/C [5] was 100 % of control.

For CC1=CC(=O)CC(C)C2CC(C(C)C)CC12 (stereo not drawn), the T/C [1] was 101 % of control, the T/C [2] was 100 % of control and the T/C [3] was 105 % of control.

For CO[Si](c1ccccc1)(c1ccccc1)c1ccc(Br)cc1, the T/C [8] was 96 % of control, the T/C [9] was 98 % of control and the T/C [10] was 102 % of control.

CCN(CC)Cc1cc2[nH]c3c4ccc(Cl)cc4ncc3c2cc1OC was tested, and the T/C (endpoint: median survival time, dose: 6.25 mg/kg/injection, schedule: Q01DX009 (ip), vehicle: saline with Tween-80) was 102 % of control, the T/C (endpoint: median survival time, dose: 12.5 mg/kg/injection, schedule: Q01DX009 (ip), vehicle: saline with Tween-80) was 102 % of control and the T/C (endpoint: median survival time, dose: 25.0 mg/kg/injection, schedule: Q01DX009 (ip), vehicle: saline with Tween-80) was 103 % of control. For the same molecule, the T/C (endpoint: median survival time, dose: 50.0 mg/kg/injection, schedule: Q01DX009 (ip), vehicle: saline with Tween-80) was 111 % of control.

For O=C(NCCCl)Nc1cc(Cl)cc(Cl)c1, the T/C (endpoint: mean survival time, dose: 25.0 mg/kg/injection, schedule: Q01DX009 (ip), vehicle: saline with Tween-80) was 97 % of control, the T/C [7] was 100 % of control and the T/C [4] was 88 % of control and 96 % of control.

In the case of Cc1cc(=O)[nH]c(N/N=C/c2ccc(N(C)C)cc2)n1, the T/C [4] is reported as 91 % of control, the T/C [8] is reported as 104 % of control and the T/C [5] is reported as 88 % of control. For the same molecule, the T/C [9] was 95 % of control, the T/C [6] was 86 % of control and the T/C [10] was 92 % of control.

For CCCCCCNC(=O)Nc1cccc(Cl)c1C, the T/C [4] was 94 % of control, the T/C [8] was 91 % of control and the T/C [5] was 94 % of control. For the same molecule, the T/C [6] was 103 % of control and the T/C [10] was 92 % of control.

N#Cc1cnn2ccn(C3OC(COC(=O)c4ccccc4)C(OC(=O)c4ccccc4)C3OC(=O)c3ccccc3)c12 (stereo not drawn) was tested, and the T/C (endpoint: median survival time, dose: 50.0 mg/kg/injection, schedule: Q01DX005 (ip), vehicle: saline with Tween-80) was 90 % of control, the T/C (endpoint: median survival time, dose: 100.0 mg/kg/injection, schedule: Q01DX005 (ip), vehicle: saline with Tween-80) was 98 % of control and the T/C (endpoint: median survival time, dose: 200.0 mg/kg/injection, schedule: Q01DX005 (ip), vehicle: saline with Tween-80) was 94 % of control.

With O=C(O)C1CC(c2ccccc2)=NN1c1ccccc1 (stereo not drawn) the T/C (endpoint: mean survival time, dose: 12.5 mg/kg/injection, schedule: Q01DX009 (ip), vehicle: water) was 101 % of control and 103 % of control and 104 % of control, the T/C (endpoint: mean survival time, dose: 25.0 mg/kg/injection, schedule: Q01DX009 (ip), vehicle: water) was 96 % of control and 101 % of control and 102 % of control and the T/C (endpoint: mean survival time, dose: 50.0 mg/kg/injection, schedule: Q01DX009 (ip), vehicle: water) was 96 % of control and 102 % of control (2×). The T/C (endpoint: mean survival time, dose: 100.0 mg/kg/injection, schedule: Q01DX009 (ip), vehicle: water) was 93 % of control and 102 % of control and 104 % of control and the T/C (endpoint: mean survival time, dose: 200.0 mg/kg/injection, schedule: Q01DX009 (ip), vehicle: water) was 102 % of control (2×) and 112 % of control.

For CC(c1ccccc1)S(=O)[O-].[C-]#[O+].[C-]#[O+].[Fe+6].[c-]1[c-][c-][cH-][c-]1 (stereo not drawn), the T/C (endpoint: mean survival time, dose: 25.0 mg/kg/injection, schedule: Q04DX003 (ip), vehicle: saline with Tween-80) was 94 % of control, the T/C (endpoint: mean survival time, dose: 50.0 mg/kg/injection, schedule: Q04DX003 (ip), vehicle: saline with Tween-80) was 100 % of control and the T/C [8] was 97 % of control.

In the case of C1CCC2(CC1)SSC1(CCCCC1)S2, the T/C (endpoint: mean survival time, dose: 100.0 mg/kg/injection, schedule: Q01DX009 (ip), vehicle: other) is reported as 108 % of control, the T/C (endpoint: mean survival time, dose: 200.0 mg/kg/injection, schedule: Q01DX009 (ip), vehicle: other) is reported as 100 % of control and the T/C (endpoint: mean survival time, dose: 400.0 mg/kg/injection, schedule: Q01DX009 (ip), vehicle: other) is reported as 110 % of control.

For O=C(SCN1CCCCC1)c1ccccc1, the T/C [7] was 98 % of control, the T/C [4] was 103 % of control and the T/C [8] was 97 % of control. For the same molecule, the T/C [9] was 95 % of control.

For CC1NCCCNCCCNC(C)c2cccc1n2 (stereo not drawn), the T/C (endpoint: mean survival time, dose: 50.0 mg/kg/injection, schedule: Q04DX002 (ip), vehicle: saline) was 104 % of control.

For CC(=O)NO, the T/C (endpoint: median survival time, dose: 25.0 mg/kg/injection, schedule: Q03HX024 (ip), vehicle: water) was 104 % of control, the T/C (endpoint: median survival time, dose: 50.0 mg/kg/injection, schedule: Q01DX009 (ip), vehicle: water) was 101 % of control and the T/C (endpoint: median survival time, dose: 50.0 mg/kg/injection, schedule: Q03HX024 (ip), vehicle: water) was 105 % of control. For the same molecule, the T/C (endpoint: median survival time, dose: 62.5 mg/kg/injection, schedule: Q01DX009 (ip), vehicle: saline) was 111 % of control, the T/C (endpoint: median survival time, dose: 62.5 mg/kg/injection, schedule: Q01DX009 (ip), vehicle: water) was 99 % of control and the T/C (endpoint: median survival time, dose: 100.0 mg/kg/injection, schedule: Q01DX009 (ip), vehicle: water) was 105 % of control. The T/C (endpoint: median survival time, dose: 100.0 mg/kg/injection, schedule: Q03HX024 (ip), vehicle: water) was 114 % of control, the T/C (endpoint: median survival time, dose: 125.0 mg/kg/injection, schedule: Q01DX009 (ip), vehicle: saline) was 111 % of control and the T/C (endpoint: median survival time, dose: 125.0 mg/kg/injection, schedule: Q01DX009 (ip), vehicle: water) was 101 % of control. For the same molecule, the T/C (endpoint: median survival time, dose: 250.0 mg/kg/injection, schedule: Q01DX009 (ip), vehicle: saline) was 118 % of control, the T/C (endpoint: median survival time, dose: 250.0 mg/kg/injection, schedule: Q01DX009 (ip), vehicle: water) was 111 % of control and the T/C (endpoint: median survival time, dose: 400.0 mg/kg/injection, schedule: Q01DX009 (ip), vehicle: water) was 152 % of control. The T/C (endpoint: median survival time, dose: 400.0 mg/kg/injection, schedule: Q03HX024 (ip), vehicle: water) was 241 % of control, the T/C (endpoint: median survival time, dose: 500.0 mg/kg/injection, schedule: Q01DX009 (ip), vehicle: saline) was 152 % of control and the T/C (endpoint: median survival time, dose: 800.0 mg/kg/injection, schedule: Q01DX009 (ip), vehicle: water) was 173 % of control and 183 % of control. For the same molecule, the T/C (endpoint: median survival time, dose: 1000.0 mg/kg/injection, schedule: Q01DX009 (ip), vehicle: saline) was 172 % of control.
